Results: the supplement of paper PMC12076712

Assays:
Assay in all cases: pIC50, kinobeads binding competition
TAOK1 = target: T1, TAOK1 (UniProt Q7L7X3)
T1 sequence (whole entry): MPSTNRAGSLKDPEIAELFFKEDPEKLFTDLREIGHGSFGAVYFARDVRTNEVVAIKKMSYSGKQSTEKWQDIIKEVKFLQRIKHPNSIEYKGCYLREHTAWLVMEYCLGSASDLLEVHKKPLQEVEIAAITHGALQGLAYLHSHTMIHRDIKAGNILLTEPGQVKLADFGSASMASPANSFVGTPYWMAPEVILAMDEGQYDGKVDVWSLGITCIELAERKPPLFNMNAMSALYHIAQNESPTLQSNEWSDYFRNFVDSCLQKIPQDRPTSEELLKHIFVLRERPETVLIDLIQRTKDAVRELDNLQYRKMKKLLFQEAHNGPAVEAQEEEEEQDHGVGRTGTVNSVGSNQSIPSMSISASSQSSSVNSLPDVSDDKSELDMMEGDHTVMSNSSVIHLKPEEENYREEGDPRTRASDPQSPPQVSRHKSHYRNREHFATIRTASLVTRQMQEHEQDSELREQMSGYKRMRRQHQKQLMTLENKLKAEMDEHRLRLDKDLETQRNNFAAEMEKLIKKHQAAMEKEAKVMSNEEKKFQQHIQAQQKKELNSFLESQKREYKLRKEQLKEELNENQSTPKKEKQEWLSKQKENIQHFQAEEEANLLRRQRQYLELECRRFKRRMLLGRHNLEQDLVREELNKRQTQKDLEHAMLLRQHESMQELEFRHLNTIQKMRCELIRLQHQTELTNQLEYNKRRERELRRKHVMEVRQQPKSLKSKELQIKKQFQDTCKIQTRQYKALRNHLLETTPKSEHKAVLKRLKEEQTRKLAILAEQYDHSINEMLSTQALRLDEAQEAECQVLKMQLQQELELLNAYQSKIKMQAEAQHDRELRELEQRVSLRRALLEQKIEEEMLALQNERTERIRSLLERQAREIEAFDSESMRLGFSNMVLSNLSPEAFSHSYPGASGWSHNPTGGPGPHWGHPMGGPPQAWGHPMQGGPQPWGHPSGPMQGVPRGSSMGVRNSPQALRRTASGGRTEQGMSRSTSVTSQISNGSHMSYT
Method in brief: (§1)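 Nine compound concentrations were tested, starting at 30 μM in 1:4 steps on live Jurkat cells (60 min, 37 °C, then lysis) or in 1:5 steps on Jurkat lysate or a 1:1:1:1 HEK293/K-562/HepG2/placenta lysate mix (60 min, 4 °C). Kinobeads-bound proteins were digested and quantified with TMT10 LC-MS/MS. pIC50 values are from logistic dose-response fits in the R drc package of fold changes relative to vehicle, from biological duplicates.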

MYLK3 = target: T2, MYLK3 (UniProt Q32MK0); conditions: cell material: Lysate mix
T2 sequence (whole entry): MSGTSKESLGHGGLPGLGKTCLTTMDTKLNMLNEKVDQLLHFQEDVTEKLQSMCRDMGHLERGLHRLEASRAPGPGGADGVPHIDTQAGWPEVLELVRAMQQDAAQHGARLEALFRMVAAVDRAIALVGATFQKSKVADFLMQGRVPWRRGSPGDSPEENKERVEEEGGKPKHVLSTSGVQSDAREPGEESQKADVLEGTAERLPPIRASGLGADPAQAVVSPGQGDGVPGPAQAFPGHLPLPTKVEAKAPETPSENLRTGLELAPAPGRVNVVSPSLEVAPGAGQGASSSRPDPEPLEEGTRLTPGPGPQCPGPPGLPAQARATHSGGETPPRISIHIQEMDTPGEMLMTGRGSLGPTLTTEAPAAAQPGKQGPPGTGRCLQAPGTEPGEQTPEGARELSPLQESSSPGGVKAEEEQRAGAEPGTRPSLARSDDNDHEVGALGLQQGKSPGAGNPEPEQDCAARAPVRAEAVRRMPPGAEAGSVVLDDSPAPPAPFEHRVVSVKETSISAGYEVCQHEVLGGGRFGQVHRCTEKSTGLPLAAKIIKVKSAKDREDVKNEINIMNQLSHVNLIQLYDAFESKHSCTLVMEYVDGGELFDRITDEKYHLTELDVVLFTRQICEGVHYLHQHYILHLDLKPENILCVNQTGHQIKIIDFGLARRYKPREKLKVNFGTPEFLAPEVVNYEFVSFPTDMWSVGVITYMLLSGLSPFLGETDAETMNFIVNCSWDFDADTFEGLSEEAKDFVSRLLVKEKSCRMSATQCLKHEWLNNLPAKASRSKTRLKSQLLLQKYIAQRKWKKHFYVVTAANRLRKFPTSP
Method in brief: as §1

ACVR1 = target: T3, ACVR1 (UniProt Q04771)
T3 sequence (whole entry): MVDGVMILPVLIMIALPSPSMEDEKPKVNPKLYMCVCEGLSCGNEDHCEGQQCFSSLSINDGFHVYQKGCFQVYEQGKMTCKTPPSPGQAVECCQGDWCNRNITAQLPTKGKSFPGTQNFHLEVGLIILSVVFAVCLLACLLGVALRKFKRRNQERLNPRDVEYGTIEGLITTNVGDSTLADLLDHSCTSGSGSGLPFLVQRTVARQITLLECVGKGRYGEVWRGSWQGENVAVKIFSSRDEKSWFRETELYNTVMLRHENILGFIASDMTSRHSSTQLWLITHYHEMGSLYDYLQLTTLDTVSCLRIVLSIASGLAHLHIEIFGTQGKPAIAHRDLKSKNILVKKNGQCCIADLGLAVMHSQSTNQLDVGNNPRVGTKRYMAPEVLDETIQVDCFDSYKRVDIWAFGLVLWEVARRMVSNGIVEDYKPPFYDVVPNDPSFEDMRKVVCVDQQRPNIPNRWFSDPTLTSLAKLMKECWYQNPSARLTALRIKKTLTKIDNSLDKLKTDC
Method in brief: as §1

SMILES	pIC50 (TAOK1; cell material: Jurkat cells)	pIC50 (TAOK1; cell material: Jurkat lysate)	pIC50 (TAOK1; cell material: Lysate mix)	pIC50 (MYLK3)	pIC50 (ACVR1; cell material: Jurkat cells)	pIC50 (ACVR1; cell material: Jurkat lysate)	pIC50 (ACVR1; cell material: Lysate mix)
O=C(NCCNC(=O)c1cc(Nc2cc(C3CC3)[nH]n2)nc(N2CCN(Cc3ccc(S(=O)(=O)F)cc3)CC2)n1)OC1CC/C=C/CCC1 (stereo unspecified)	5.96	5.65	6.1	< 4.52	4.68	< 4.52	< 4.52
Cc1cc(Nc2cc(C(=O)NCCNC(=O)OC3CC/C=C/CCC3)nc(N3CCN(Cc4ccc(S(=O)(=O)F)cc4)CC3)n2)n[nH]1 (stereo unspecified)			5.87	< 4.52			< 4.52
CCNC(=O)c1cc(Nc2cc(C3CC3)[nH]n2)nc(N2CCN(Cc3ccc(S(=O)(=O)F)cc3)CC2)n1			< 4.52	4.69			4.74
CCNC(=O)c1cc(Nc2cc(C)[nH]n2)nc(N2CCN(Cc3ccc(S(=O)(=O)F)cc3)CC2)n1			< 4.52	< 4.52			< 4.52
C#CCNC(=O)c1cc(Nc2cc(C3CC3)[nH]n2)nc(N2CCN(Cc3ccc(S(=O)(=O)F)cc3)CC2)n1	5.6	< 4.52	< 4.52	< 4.52	5.78	4.66	5.14
C#CCNC(=O)c1cc(Nc2cc(C)[nH]n2)nc(N2CCN(Cc3ccc(S(=O)(=O)F)cc3)CC2)n1			< 4.52	< 4.52			< 4.52
